Data set [1] is described as follows: Aqueous solubility of the compound. The class given is physicochemical. The conditions noted are these: buffer.
Data set [2] in a line: Drug level in mouse adipose tissue at 10 mg/kg, po after 3 hrs. The note with it: read-out: Drug uptake. Further details: dose 10 mg/kg, route oral. The class given is ADME, organism-based.
A short description of data set [3]: Plasma concentration in mouse at 10 mg/kg, po after 3 hrs. The class given is ADME, organism-based. Set-up: dose 10 mg/kg, route oral.
Data set [4] can be described thus: Drug level in mouse liver at 10 mg/kg, po after 3 hrs. The data set is classed as ADME, organism-based. Set-up: dose 10 mg/kg, route oral. The note with it: read-out: Drug uptake.

Some results are limits rather than exact numbers.

Take `c1ccc(-c2ccc(C3(Cc4nnn[nH]4)C4CC5CC(C4)CC3C5)cc2)cc1` (configuration not stated): in data set [1], the solubility result is on record as “soluble”.
In the case of `N#Cc1ccc(-c2ccc(C3(Cc4nnn[nH]4)C4CC5CC3CC(C4)C5O)cc2)cc1` (racemic), the concentration at 3 h in data set [2] is under 75 nM; in data set [3], 820 nM; in data set [4] it was 23700 nM.
With `OC1C2CC3CC1CC(C2)C3(Cc1nnn[nH]1)c1ccc(-c2ccc(F)cc2)cc1` (single isomer, unassigned; enantiomer 1), the concentration at 3 h in data set [2] was 160 nM; in data set [3], 1560 nM; in data set [4], 13900 nM.

The record behind these values is ChEMBL document CHEMBL3102707, “Synthesis and structure-activity relationship of 2-adamantylmethyl tetrazoles as potent and selective inhibitors of human 11β-hydroxysteroid dehydrogenase type 1 (11β-HSD1)” (Bioorg Med Chem Lett, 2014).
